In brackets after ≈: the same amount, converted by molar mass. Several values for one entry are separate records, joined by “and”; a condition that tells them apart may be missing. Equal values may be shown once.
Experiments:
[1] = Cytotoxicity MTT assay (HELAM); format: cell-based, Human; conditions: human, HelaM cells, read-out: HELAM (222.125) CC50
Description: Cytotoxicity of the compounds was evaluated using the MTT assay. Human HelaM cells grown in 96-well plates were exposed to serial dilutions of the tested compounds (final volume of 0.2 ml) and incubated for 72 hours at 37° C. and 5% CO2. Inhibitors are typically varied over the range of 25 to 0.8 μM. The final DMSO concentration in the assay is 0.5%. MTT (3-(4,5-Dimethylthiazol-2-yl)-2,5-diphenyltetrazolium bromide, a tetrazole) was added and reduced to purple formazan only in living cells. Solubilization of the formazan crystals was achieved by adding 100 μl 2-propanol. Cell viability was determined by measuring the absorbance of the reduced formazan, giving a purple color, at 540 nm and 690 nm. The absorbance measured at 690 nm was automatically subtracted from the absorbance at 540 nm, to eliminate the effects of non-specific absorption. The percent cytotoxicity achieved by the compounds was calculated according to standard methods. Cytotoxicity is reported as CC50, the concentration that causes a 50% reduction in cell viability.
The results are depicted in the table(s) below (HELAM).

[2] = target: T1, S. aureus ATCC 29213 FabI (Staphylococcus aureus, UniProt Q6GI75); assay: Staphylococcus aureus FabI enzyme inhibition assay; format: biochemical; conditions: read-out: FabI (300.235) IC50 (converted)
T1 sequence (Q6GI75 1-256): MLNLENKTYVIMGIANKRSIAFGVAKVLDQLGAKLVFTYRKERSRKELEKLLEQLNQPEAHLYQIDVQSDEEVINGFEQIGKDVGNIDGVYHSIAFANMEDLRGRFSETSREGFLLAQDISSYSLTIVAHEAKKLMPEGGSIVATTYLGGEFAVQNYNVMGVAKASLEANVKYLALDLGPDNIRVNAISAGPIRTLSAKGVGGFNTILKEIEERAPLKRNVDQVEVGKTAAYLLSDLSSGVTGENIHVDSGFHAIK
Description: Y.1 FabI Enzyme Inhibition: Staphylococcus aureus FabI Enzyme Inhibition Assay
FabI enzyme inhibition assays were carried out in half-area, 384-well microtitre plates. Compounds were evaluated in 40-μl assay mixtures containing 100 mM NaADA, pH 6.5 (ADA=N-[2-acetamido]-2iminodiacetic acid), 250 μM crotonoyl-CoA, 625 μM NADH and 50 μg/ml S. aureus ATCC 29213 FabI. Inhibitors were typically varied over the range of 50 to 0.39 μM. The reaction mixtures were incubated for 30 minutes at room temperature and the reaction was stopped by adding 200 mM Tris buffer (pH 9.0) to create a pH-shift. The consumption of NADH was monitored by measuring the change in absorbance at […]. By comparing sample readings to those of negative (absence of compound) and positive (absence of enzyme) controls, the percent inhibition of enzymatic activity of the compounds was determined A best-fit curve is fitted by a minimum of squares method. From this an IC50-value (expressed in μg/ml), resulting in 50% inhibition of enzymatic activity, was obtained.

S. aureus = assay: Antibacterial susceptibility testing, IC90 determination with 10% human serum (STA + 10% HS); format: cell-based, Staphylococcus aureus; conditions: Staphylococcus aureus, human serum at final concentration of 10%, read-out: STA + 10% HS (361.169) IC90
Description: (§1) The following bacteria were used: Staphylococcus aureus ATCC 29213, methicillin-resistant Staphylococcus aureus (MRSA) ATCC 700788 and Escherichia coli ATCC 35218. The bacteria used in this study were grown overnight in flasks containing 100 ml Mueller-Hinton broth (Difco cat. nr. 0757-17) in sterile de-ionized water, with shaking, at 37° C. Stocks were store at −70° C. until use.
(§2) Bacteria were incubated on a tryptic soy agar plate containing 5% sheep blood (Becton Dickinson cat. nr. 254053) for 18-24 hours at 35° C. in aerobic conditions (first passage). For the second passage, fresh Mueller-Hinton broth is inoculated with 5-10 colonies and grown overnight at 35° C. until turbidity (reaching log-phase) in aerobic conditions is reached. The bacterial suspension is then adjusted to 0.5 McFarland density and further diluted 1:100 in Mueller Hinton broth medium. This is used as inoculum.
(§3) MIC assays were performed by the broth microdilution method in a 96-well format (flat-bottom microtitre plates) with a final volume of 0.1 ml Mueller Hinton broth containing two-fold serial dilutions of compounds and inoculated with 5×10^5 CFU/ml of bacteria (standard inoculum size according to CLSI guidelines). Inhibitors are typically varied over the range of 63 to 0.49 μM. The final DMSO concentration in the assay was 1.25% (maximum tolerable DMSO concentration=6%). In the assays where the effect of human serum on the activity of the compounds against S. aureus was tested, human serum was added at a final concentration of 10%. The plates were incubated at 35° C. for 16-20 hours. At the end of incubation the bacterial growth was quantified fluorometrically. For this, resazurin was added to all wells and the plates were re-incubated. The incubation time is dependent on the type of bacteria. A change in color from blue to pink indicated the growth of bacteria. The fluorescence was read in computer-controlled fluorometer (Fluoroskan Ascent FL, Labsystems) at an excitation wavelength 540 nm and an emission wavelength of 590 nm. The % growth inhibition achieved by the compounds was calculated according to standard methods. The IC90 (expressed in μg/ml) was defined as the 90% inhibitory concentration for bacterial growth. A panel of reference compounds were simultaneously tested for QC approval.
The results are depicted in the table(s) below (STA+10% HS).

[3] = system: Staphylococcus aureus ATCC 29213; assay: Antibacterial susceptibility testing, IC90 determination (STA); format: cell-based; conditions: resazurin; for IC90: Staphylococcus aureus, ATCC29213, Staphylococcus aureus ATCC 29213, broth microdilution, read-out: STA (361.159) IC90
Description: as §1, §2
The result(s) are depicted the table below (for STA ATCC 29213).
as §3

melting point	IC50 [2] [µM]	IC90 (S. aureus) [mg/L]	IC90 [3] [mg/L]	STA (361.159) IC90 ([3]; Staphylococcus aureus ATCC 29213, broth microdilution) [mg/L]	Compound	CC50 at 72 h [1] [mg/L]
184.41 °C	4.67	16.1	1.61 (≈ 3.55 µM)	–	Cc1cc(C(=O)Nc2ccc(/C=C/C(=O)N3CC4C=C(c5ccccc5)CC4C3)cn2)c(C)o1 (centres unmarked) [compound 19]	10.8 (≈ 23.7 µM)
202.82 °C	1.24	0.398	0.316 (≈ 0.7 µM)	–	Cc1cncc(C(=O)Nc2ccc(/C=C/C(=O)N3CC4C=C(c5ccncc5)CC4C3)cn2)c1 (centres unmarked) [compound 8]	> 11.3
> 250 °C	0.903	0.71	0.35 (≈ 0.903 µM)	–	O=C1Nc2ncc(/C=C/C(=O)N3CC4C=C(c5ccccc5)CC4C3)cc2CO1 (centres unmarked) [compound 51]	> 9.73
142 °C	1.39	< 0.23	< 0.23	–	COc1cncc(C(=O)Nc2ccc(/C=C/C(=O)N3CC4C=C(c5ccncc5)CC4C3)cn2)c1 (centres unmarked) [compound 30]	> 11.7
278.12 °C	1.23	0.41	0.25 (≈ 0.531 µM)	–	O=C1Nc2ncc(/C=C/C(=O)N3CC4C=C(c5ccccc5)CC4C3)cc2C(=O)N2CCOCC12 (centres unmarked) [compound 76]	> 11.8
223.55 °C	0.825	< 0.21	< 0.21	–	CC(C)C1Oc2cc(/C=C/C(=O)N3CC4C=C(c5nccs5)CC4C3)cnc2NC1=O (centres unmarked) [compound 64]	> 11
156 °C	0.927	0.71	0.76 (≈ 1.96 µM)	–	O=C1Nc2ncc(/C=C/C(=O)N3CC4C=C(c5ccncc5)CC4C3)cc2CO1 (centres unmarked) [compound 55]	> 9.76
208.43 °C	1.73	0.36	< 0.22	–	Cc1cncc(C(=O)Nc2ccc(/C=C/C(=O)N3CC4C=C(c5ccsc5)CC4C3)cn2)c1 (centres unmarked) [compound 5]	10.1 (≈ 22.1 µM)
224.9 °C	1.42	0.36	< 0.21	–	CC(C)C1Oc2cc(/C=C/C(=O)N3CC4C=C(c5ccccc5)CC4C3)cnc2NC1=O (centres unmarked) [compound 63]	> 10.8
272.58 °C	1.47	0.7	0.37 (≈ 0.922 µM)	–	O=C1COCc2cc(/C=C/C(=O)N3C[C@H]4CC(c5ccccc5)=C[C@H]4C3)cnc2N1 (single isomer, unassigned) [compound 53]	> 10.1
> 250 °C	1.44	1.4	1.33 (≈ 2.95 µM)	–	O=C(Cc1ccncc1)Nc1ccc(/C=C/C(=O)N2CC3C=C(c4ccncc4)CC3C2)cn1 (centres unmarked) [compound 17]	> 4.51
> 260 °C	1.13	< 0.08	0.16 (≈ 0.412 µM)	–	O=C1COc2cc(/C=C/C(=O)N3CC4C=C(c5ccncc5)CC4C3)cnc2N1 (centres unmarked) [compound 36]	> 3.88
226 °C	0.651	0.79	0.76 (≈ 1.83 µM)	–	O=C1CNC(=O)c2cc(/C=C/C(=O)N3CC4C=C(c5ccccc5)CC4C3)cnc2N1 (centres unmarked) [compound 66]	> 10.4
> 250 °C	1.45	0.2	0.17 (≈ 0.368 µM)	–	O=C1Nc2ncc(/C=C/C(=O)N3CC4C=C(c5ccsc5)CC4C3)cc2CN2CCOCC12 (centres unmarked) [compound 70]	> 11.6
140 °C	3.23	3.33	0.47 (≈ 1.07 µM)	–	Cc1occc1C(=O)Nc1ccc(/C=C/C(=O)N2CC3C=C(c4ccccc4)CC3C2)cn1 (centres unmarked) [compound 11]	5.16 (≈ 11.7 µM)
214.9 to 232.7 °C	0.832	< 0.21	< 0.21	–	O=C1CC2CCCCN2Cc2cc(/C=C/C(=O)N3C[C@@H]4CC(c5ccccc5)=C[C@@H]4C3)cnc2N1 (some centres unmarked) [compound 90]	4.4 (≈ 9.39 µM)
216 °C and 216.42 °C	2.56	3.05	1.6 (≈ 3.59 µM)	–	COC(=O)CCC(=O)Nc1ccc(/C=C/C(=O)N2CC3C=C(c4ccccc4)CC3C2)cn1 (centres unmarked) [compound 18]	> 11.2
149 °C	1.18	1.44	1.51 (≈ 3.72 µM)	–	Cn1nccc1C1=CC2CN(C(=O)/C=C/c3cnc4c(c3)COCC(=O)N4)CC2C1 (centres unmarked) [compound 56]	> 10.2
202 °C	7.59	1.66	0.21 (≈ 0.494 µM)	–	O=C(Nc1ccc(/C=C/C(=O)N2CC3C=C(c4ccccc4)CC3C2)cn1)c1ccoc1 (centres unmarked) [compound 2]	7.57 (≈ 17.8 µM)
214 °C	1.82	0.67	0.17 (≈ 0.377 µM)	–	Cc1cncc(C(=O)Nc2ccc(/C=C/C(=O)N3CC4C=C(c5ccccc5)CC4C3)cn2)c1 (centres unmarked) [compound 1]	> 4.5
262 to 264 °C	1.23	0.47	0.48 (≈ 0.938 µM)	–	CC(=O)N1CCN2C(=O)c3cc(/C=C/C(=O)N4CC5C=C(c6ccccc6)CC5C4)cnc3NC(=O)C2C1 (centres unmarked) [compound 83]	> 12.9
242 °C	1.07	< 0.22	–	0.31	O=C1Nc2ncc(/C=C/C(=O)N3CC4C=C(c5ccccc5)CC4C3)cc2CN2CCOCC12 (centres unmarked) [compound 78]	> 11.5
> 260 °C	0.971	0.35	0.37 (≈ 0.922 µM)	–	O=C1CNCc2cc(/C=C/C(=O)N3CC4C=C(c5ccncc5)CC4C3)cnc2N1 (centres unmarked) [compound 52]	> 10.1
251 °C and 251.61 °C	1.07	0.5	0.34 (≈ 0.91 µM)	–	CC(=O)Nc1ccc(/C=C/C(=O)N2CC3C=C(c4ccccc4)CC3C2)cn1 (centres unmarked) [compound 10]	> 9.38
120 °C	3.56	5.36	0.76 (≈ 1.75 µM)	–	O=C(Nc1ccc(/C=C/C(=O)N2CC3C=C(c4ccccc4)CC3C2)cn1)c1ccccc1 (centres unmarked) [compound 13]	> 10.9
